Assay results from patent publication US10738013B2, “Eluxadoline crystalline forms and processes for their preparation” (priority 2017, dated 2020).

What was measured:
Dissolution test = type: physicochemical; details: 50 mM phosphate buffer pH=7.4, 37° C., 110 rpm
Protocol: Dissolution tests were performed by means of Sotax AT7 Smart equipped with 6×800 mL volume vessels and using a 50 mM phosphate buffer pH=7.4, previously heated to 37° C. 20 mg of the sample to be tested were placed in each vessel, and stirred (with paddles) at 110 rpm for 60 minutes at 37±0.2° C. Aliquots were taken at 5, 10, 20, 30, 45 and 60 min, filtered through 0.45 μm Chromafil Xtra RC 45/25 syringe filter and analysed by UV/VIS spectrometer Perkin Elmer Lambda 35, 1 cm quartz cell (absorbance at 203 nm). pH was determined using a Mettler Toledo pH Meter FE20 equipped with a InLab®420 electrode.
A portion of the product was subjected to a dissolution test in 50 mM phosphate buffer at pH=7.4 giving the results summarised below: […]

[1] = Thermal (polymorphic) stability at 120° C. by XRPD; type: physicochemical; details: maintained at 120° C. for 24 or 48 hours, cooled to room temperature
Protocol: By “polymorphically stable” it is meant that the crystalline Form α′ of the present invention when stored under stressed conditions i.e., up to a temperature of 120° C. for 24 or 48 hours, show no signs of crystallinity associated to other polymorphs of eluxadoline (e.g. Form β) as judged by the absence of their relevant peaks in an X-ray powder diffractogram (XRPD).
Analyses were performed on a Bruker AXS D8 Advance diffractometer (40 kV, 40 mA, λ=1.5418 Å), equipped with a linear Lynxeye position sensitive detector, set at 300 mm from the sample (Ni-filtered Cu-Kα1,2 radiation). Data collection was made in coupled mode and in theta-theta configuration, in the 3-30° 2-theta, sampling with a 0.02° step scan. Samples were gently ground in an agate mortar, and then deposited in the 0.2 mm-deep hollow of a silicon monocrystal zero background plate.
The polymorphically and chemically stable form α′ of eluxadoline, prepared as described in Examples 10 to 12, were maintained at 120° C. for 24 or 48 hours.

## COc1ccc(CN(C(=O)[C@@H](N)Cc2c(C)cc(C(N)=O)cc2C)[C@@H](C)c2nc(-c3ccccc3)c[nH]2)cc1C(=O)O [form α′, 5-({[(2S)-2-amino-3-(4-carbamoyl-2,6-dimethylphenyl)propanoyl][(1S)-1-(4-phenyl-1H-imidazol-2-yl)ethyl]amino}methyl)-2-methoxybenzoic acid]
Dissolution test; 5 min
  % dissolved: 6.06%
Dissolution test; 10 min
  % dissolved: 13.93%
Dissolution test; 20 min
  % dissolved: 17.81%
Dissolution test; 30 min
  % dissolved: 27.87%
Dissolution test; 45 min
  % dissolved: 38.40%
Dissolution test; 60 min
  % dissolved: 60.17%
[1]
  XRPD after thermal stress (polymorphic stability): XRPD spectrum corresponding to the one obtained in example 10
